Data set [1] in a line: UV-Vis absorption and fluorescence spectra. It is filed as physicochemical. The settings on record: dichloromethane; for fluorescence maximum: excitation at 550 nm. The procedure:
Because the pigments noted above are photoactive compounds, it was important to determine the effect of the sulfur atom on their spectral characteristics.
Absorption and fluorescence spectra were recorded on Shimadzu UV1800 UV/VIS (Shimadzu, Duisburg, Germany) and Shimadzu RF-5301 (Shimadzu, Duisburg, Germany) spectrophotometers in quartz cells (0.4 × 1.0 cm) with an optical path length of 1 cm (spectral slit width 1 nm), using dichloromethane, acetone, and water as the solvents. Absorption spectra were recorded in the range of 350–750 nm. Fluorescence spectra were recorded in the range of 600–800 nm (excitation wavelength 550 nm), using dichloromethane, acetone, and water as the solvents. The fluorescence quantum yield was determined by the relative method. A solution of purpurin-18 in toluene was used as the standard. Both ^1H and ^13C NMR spectra were recorded on a Bruker DPX 300 spectrometer (Bruker, Alzenau, Germany). NMR samples were prepared in d6-acetone and CDCl3. Matrix-assisted laser desorption/ionization (MALDI) mass spectra were recorded on a Bruker Ultraflex TOF/TOF spectrometer (Bruker, Alzenau, Germany), with 2,5-dihydroxybenzoic acid as the matrix. Elemental analysis was performed on a Vario Micro Cube analyzer (Elementar, Berlin, Germany).

The nature of data set [2]: Chemical stability in 4% aqueous micellar solution of Kolliphor ELP (absorption band intensity vs time). It is filed as physicochemical. From the text:
The stability of pyropheophorbide a 13^1-thioketone (6) in 4% aqueous micellar solution of Kolliphor ELP over time was studied at a neutral pH by monitoring the variation in the Q2 band intensity in the absorption spectra of the sample.
At the next step, we studied the chemical stability of complex 7 obtained in Kolliphor ELP aqueous micellar solutions vs. time at various pH values based on the variation in the intensity of the Qy band in the EAS of the samples (Figure 4).
A solution of compounds (4) or (7) in dichloromethane (1–2 mL) was added dropwise with continuous argon bubbling to a freshly prepared 4% aqueous solution of Kolliphor ® ELP (5 mL) heated to 45 °C. Bubbling was continued until strong foaming started. A clear dark-red solution with a concentration of 0.25 mg/mL was obtained, which was then successively filtered through a 0.45 µm PTFE filter and a 0.22 µm PTFE filter. The concentrations of the resulting micellar solutions were monitored spectrophotometrically.

Data set [3] concerns S37 murine sarcoma cell line. The data set can be described thus: Photoinduced (combined) cytotoxicity, MTT assay after irradiation. The format is cell-based. As to conditions: S37 cells; for IC50: 4 h PS incubation. The procedure: To estimate the combined effect (photoinduced and chemocytotoxic) of compound (4) and platinum complex (7), a two-step experiment was designed: incubation of cells with PS for 4 h and irradiation and subsequent incubation for 48 or 72 h followed by estimation of cell survival by the MTT assay.
The S37 murine sarcoma cell line (collection of the N.N. Blokhin Research Institute of Oncology) was used to estimate photoinduced activity and cytotoxicity.
Cells were cultured in DMEM medium (PanEco, Russia) with addition of 2 mM L-glutamine (PanEco, Moscow, Russia) and 10% fetal calf blood serum (FCS) (Corning, New York, NY, USA) in 25 cm^2 culture vials (Corning, USA) at 37 °C in a humid atmosphere containing 5% carbon dioxide. Upon passivation, the Versene solution (PanEco, Russia) was used to remove the cells from the substrate. For in vitro studies, cells of the 3rd and 4th passages were used with an optimal seeding concentration of 6 × 10^4 cells/mL.
The concentrations of the solutions obtained were 0.6 mg/mL for compound (4) and 0.1 mg/mL for compound (7). All the volumes obtained were filtered through a Millipore membrane filter with a pore size of 0.22 μm. Next, the samples were diluted in 24-well plates (Corning, USA) on the cell-culturing medium. The final concentration of the substances ranged from 32 ng/mL to 20 μg/mL.
To perform the experiments, S37 tumor cells were seeded into 96-well plates in the amount of 6 × 10^3 cells per well in a 100 μL volume. Exposure was performed in the exponential phase of cell growth 24 h after seeding. Solutions of compounds in the complete culture medium were added to the wells at final concentrations of 32 ng/mL to 20 μg/mL, in triplicate. The time of cell incubation with compounds before irradiation was 4 h. The culture medium was used as the blank. Light exposure was performed with a halogen lamp through a KS-10 broadband filter (λ > 620 nm). The light dose was 10 J/cm^2. After light exposure, the plates with cells were placed in a CO2 incubator for 24, 48, or 72 h.
Cell survival was estimated using the colorimetric MTT test (24 and 72 h after exposure), which is based on the ability of dehydrogenases in living cells to convert yellow water-soluble 3-(4-5-dimethyl-[…]-2)-2,5-diphenyltetrazolium bromide to blue crystals of formazan, whose amount is measured spectrophotometrically.
Before the test, cells were washed from cytotoxic agents. Then, 0.5% solution of 3-(4,5-dimethylthiazolyl-2)-2,5-diphenyltetrazolium bromide was added to the wells and the system was incubated for 3 h under standard conditions. After incubation, the medium with the MTT-reagent was removed and formazan crystals were dissolved for 10 min with dimethyl sulfoxide. Optical density was measured on a Multiscan FC multichannel plate photometer (Thermo scientific) at 550 nm.
The growth inhibition (GI) of cells in a culture was calculated using the following formula:GI(%) = [ODk − ODo/ODk)] × 100%, where ODo is the optical density of formazan in the test wells and ODk is the optical density of formazan in the control wells.
Quantitative parameters were calculated using the results of three independent tests.
A general note: Tetrazolium assays rely on reduction of a dye to a coloured formazan, in cell work by metabolically active cells.

The test system of data set [4] is S37 murine sarcoma cell line. The experiment in a line: Dark cytotoxicity, MTT assay. The format is cell-based. The settings on record: S37 cells; 72 h incubation of compounds with cells, no irradiation, MTT.
Method: To estimate cytotoxicity, cells were incubated with the substances for 72 h under dark conditions in a CO2 incubator.
Cell survival was estimated using the colorimetric MTT test (24 and 72 h after exposure), which is based on the ability of dehydrogenases in living cells to convert yellow water-soluble 3-(4-5-dimethyl-tetrazolyl-2)-2,5-diphenyltetrazolium bromide to blue crystals of formazan, whose amount is measured spectrophotometrically.
Data set [5] is described as follows: Chemical stability in lysate of S37 sarcoma cells (Qy band intensity). It is filed as physicochemical. The settings on record: Cell lysate S37 (pH = 7.8). The procedure: (§1) The chemical stability of compounds 4 and 7 was also studied in the lysate of S37 sarcoma cells (pH = 7.8), as well as in the cell culture medium at different pH values. The stability was assessed by the change in the intensity of the Qy bands as described above.

Data set [6] can be described thus: Chemical stability in cell culture medium at different pH (Qy band intensity). It is filed as physicochemical. The protocol: as §1

We go through four compounds from article PMC10222512, “Thiocarbonyl Derivatives of Natural Chlorins: Synthesis Using Lawesson’s Reagent and a Study of Their Properties” (Molecules, 2023).

In the case of `C=Cc1c(C)c2cc3nc(c4c5[nH]c(cc6nc(cc1[nH]2)C(C)=C6CC)c(C)c5C(=S)C4C(=O)OC)[C@@H](CCC(=O)OC)[C@@H]3C` (stereo partly drawn) [Compound 5], in data set [1], the “long-wave absorption maximum (Q2 band)” value is recorded as 706 nm and the fluorescence maximum was 719 nm.
As for `C=Cc1c(C)c2cc3nc(c4c5[nH]c(cc6nc(cc1[nH]2)C(C)=C6CC)c(C)c5C(=S)C4)[C@@H](CCC(=O)OC)[C@@H]3C` [Compound 6, Pyropheophorbide a 13^1-Thioketone], in data set [1], the “long-wave absorption maximum (Q2 band)” value was found to be 708 nm and the fluorescence maximum is recorded as 723 nm. Moreover, the “decrease of Q2 band” value in data set [2] (4% Kolliphor ELP micellar solution, neutral pH, after 3 h) was “more than 50%”. Further, the “conversion of thioketone to pyropheophorbide a (4)” value in data set [2] (4% Kolliphor ELP micellar solution, neutral pH, after 24 h) was “completely converted”.
One may read the IC50 as the concentration that gives 50% inhibition. `C=Cc1c(C)c2cc3nc(c4c5[nH]c(cc6nc(cc1[nH]2)C(C)=C6CC)c(C)c5C(=[S+][Pt-2]([NH3+])([NH3+])[Cl])C4)[C@@H](CCC(=O)OC)[C@@H]3C.O=[N+]([O-])[O-]` (stereo partly drawn) [Compound 7, Platinum Complex of Pyropheophorbide a 13^1-Thioketone]: the IC50 in data set [3] (irradiation at 10 J/cm^2, MTT after 24 h, read-out: IC50, Photoinduced cytotoxicity) amounted to 478 ± 9 nM; in data set [3] (irradiation at 10 J/cm^2, MTT after 48 h, read-out: IC50, Combined cytotoxicity) it was 146 ± 7 nM; in data set [3] (irradiation at 10 J/cm^2, MTT after 72 h, read-out: IC50, Combined cytotoxicity), 98 ± 5 nM; in data set [4], 271 ± 7 nM. In data set [3] (from 24 h to 72 h after irradiation), the “increase of photocytotoxicity on increasing incubation time after irradiation” value is recorded as 5 fold. Moreover, the “chemical stability (Qy band)” value in data set [2] (Kolliphor ELP micellar solution, acid, pH = 4) is reported as “hypsochromic shift in the Qy band to the 666 nm region”. In addition, the “chemical stability (Qy band intensity)” value in data set [2] (Kolliphor ELP micellar solution, alkaline, pH = 9) is “a precipitate formed and the intensity of the Qy absorption band decreased”; in data set [2] (Kolliphor ELP micellar solution, pH = 7), “remained stable for 24 h”. Besides, the “Content, %” value stood at 100% in data set [5] (0 min); 89% in data set [5] (4 h); 84% in data set [5] (24 h); 79% in data set [5] (72 h); 100% in data set [6] (pH 4, 0 min); 25% in data set [6] (pH 4, 4 h). The “Content, %” value in data set [6] (pH 4, 24 h) was determined as 17%; in data set [6] (pH 4, 72 h), 11%; in data set [6] (pH 7, 0 min) it was 100%; in data set [6] (pH 7, 4 h), 97%; in data set [6] (pH 7, 24 h), 94%; in data set [6] (pH 7, 72 h), 91%. The “Content, %” value in data set [6] (pH 9, 0 min) came out at 100%; in data set [6] (pH 9, 4 h) it was 87%; in data set [6] (pH 9, 24 h) it was 75%; in data set [6] (pH 9, 72 h), 65%. For the same compound, the “Intensity at 675 nm” value stood at 0.913 in data set [5] (0 min); 0.8126 in data set [5] (4 h); 0.7669 in data set [5] (24 h); 0.7213 in data set [5] (72 h); 0.913 in data set [6] (pH 4, 0 min); 0.2282 in data set [6] (pH 4, 4 h). For the same compound, the “Intensity at 675 nm” value in data set [6] (pH 4, 24 h) was 0.1552; in data set [6] (pH 4, 72 h), 0.1004; in data set [6] (pH 7, 0 min), 0.913; in data set [6] (pH 7, 4 h), 0.8856; in data set [6] (pH 7, 24 h), 0.8582; in data set [6] (pH 7, 72 h) it was 0.833. For the same compound, the “Intensity at 675 nm” value came out at 0.913 in data set [6] (pH 9, 0 min); 0.7943 in data set [6] (pH 9, 4 h); 0.6847 in data set [6] (pH 9, 24 h); 0.5277 in data set [6] (pH 9, 72 h).
Regarding “Pheophorbide a [Compound 3, reference compound]”, in data set [1], the “long-wave absorption maximum (Q2 band)” value turned out to be 666 nm and the fluorescence maximum was 680 nm.
